How the values were obtained:
Adenosine A2B Receptor = target: T1, Adenosine A2B Receptor (Homo sapiens, UniProt P29275); test: Activity assay of adenosine receptor modulators, Adenosine A2B Receptor (Table 1); type: biochemical; details: cAMP; read-out: A2BR cAMP IC50
T1 sequence (P29275 1-332): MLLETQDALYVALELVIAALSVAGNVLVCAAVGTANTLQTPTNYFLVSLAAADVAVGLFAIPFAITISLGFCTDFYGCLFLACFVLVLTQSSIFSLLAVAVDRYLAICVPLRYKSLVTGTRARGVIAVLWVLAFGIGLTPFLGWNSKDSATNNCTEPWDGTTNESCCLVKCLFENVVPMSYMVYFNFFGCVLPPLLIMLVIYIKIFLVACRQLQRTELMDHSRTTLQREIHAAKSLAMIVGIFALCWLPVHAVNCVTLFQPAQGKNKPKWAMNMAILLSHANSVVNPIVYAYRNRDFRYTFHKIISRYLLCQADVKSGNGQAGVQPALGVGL
Experimental: (§1) Compounds (e.g., adenosine receptor modulators) were tested for its biological activity. The assay results in Table 1 indicate (+ means >1 μM; ++ means 100 nM to 1 μM; +++ means <100 nM).

A3R = target: T2, A3R (Homo sapiens, UniProt P0DMS8); test: Activity assay of adenosine receptor modulators, A3R cAMP (Table 1); type: cell-based
T2 sequence (P0DMS8 1-318): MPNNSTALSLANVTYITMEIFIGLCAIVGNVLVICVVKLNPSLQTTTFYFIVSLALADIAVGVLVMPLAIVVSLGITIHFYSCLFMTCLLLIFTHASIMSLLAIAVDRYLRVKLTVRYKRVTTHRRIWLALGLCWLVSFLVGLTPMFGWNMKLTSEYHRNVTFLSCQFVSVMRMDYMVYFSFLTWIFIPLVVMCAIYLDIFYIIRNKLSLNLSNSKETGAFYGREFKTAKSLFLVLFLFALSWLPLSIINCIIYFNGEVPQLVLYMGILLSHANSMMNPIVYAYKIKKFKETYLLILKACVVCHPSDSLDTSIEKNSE
Experimental: as §1

A1R = target: T3, A1R (Homo sapiens, UniProt P30542); test: Activity assay of adenosine receptor modulators, A1R cAMP (Table 1); type: cell-based
T3 sequence (P30542 1-326): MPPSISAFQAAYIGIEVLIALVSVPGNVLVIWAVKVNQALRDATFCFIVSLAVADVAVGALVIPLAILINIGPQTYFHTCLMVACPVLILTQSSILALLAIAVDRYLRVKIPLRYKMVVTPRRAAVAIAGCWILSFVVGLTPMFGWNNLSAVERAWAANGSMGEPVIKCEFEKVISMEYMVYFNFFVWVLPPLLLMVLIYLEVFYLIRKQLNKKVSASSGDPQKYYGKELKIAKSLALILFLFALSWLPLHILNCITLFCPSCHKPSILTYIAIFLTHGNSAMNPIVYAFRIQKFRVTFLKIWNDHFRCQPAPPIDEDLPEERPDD
Experimental: as §1

Adenosine A2A Receptor = Adenosine A2A Receptor (Homo sapiens, UniProt P29274); test: Activity assay of adenosine receptor modulators, Adenosine A2A Receptor (Table 1); type: biochemical; details: cAMP; read-out: A2AR cAMP IC50
Chain of Adenosine A2A Receptor (P29274 whole entry): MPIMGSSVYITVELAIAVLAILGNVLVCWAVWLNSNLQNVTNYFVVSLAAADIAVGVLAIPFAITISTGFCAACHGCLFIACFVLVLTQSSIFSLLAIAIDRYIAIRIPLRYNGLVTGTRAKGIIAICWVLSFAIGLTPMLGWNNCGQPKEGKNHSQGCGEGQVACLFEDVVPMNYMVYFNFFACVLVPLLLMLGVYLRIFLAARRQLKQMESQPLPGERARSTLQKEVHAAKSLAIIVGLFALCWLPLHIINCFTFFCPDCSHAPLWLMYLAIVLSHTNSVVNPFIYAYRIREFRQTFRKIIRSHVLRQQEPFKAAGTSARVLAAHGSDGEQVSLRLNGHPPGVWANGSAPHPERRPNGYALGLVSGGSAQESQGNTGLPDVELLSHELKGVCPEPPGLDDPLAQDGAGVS
Experimental: as §1

Structure (SMILES) | IC50 (Adenosine A2B Receptor) [nM] | IC50 (A3R) [nM] | IC50 (A1R) [nM] | IC50 (Adenosine A2A Receptor) [nM]
Cc1nc2nc(N[C@@H](C)c3cccnc3)nc(C(=O)N3CC(NC(=O)C4(C)CC4)C3)c2s1 [Example 76, 1-Methyl-N-[1-[2-methyl-5-[[(S)-1-(3-pyridyl)ethyl]amino]thiazolo[4,5-d]pyrimidine-7-carbonyl]azetidin-3-yl]cyclopropanecarboxamide] | 100 to 1000 | 100 to 1000 | > 1000 | < 100
Cc1nc2nc(N[C@@H](C)c3cccnc3)nc(C(=O)N3CC(NC(=O)C45CC6CC(CC(C6)C4)C5)C3)c2s1 [Example 77, N-[1-[2-Methyl-5-[[(S)-1-(3-pyridyl)ethyl]amino]thiazolo[4,5-d]pyrimidine-7-carbonyl]azetidin-3-yl]adamantane-1-carboxamide] | < 100 | 100 to 1000 | > 1000 | < 100
Cc1nc2nc(N[C@@H](C)c3ccccn3)nc(C(=O)N3CC(NC(=O)Nc4ccccc4)C3)c2s1 [Example 78, 1-[1-[2-Methyl-5-[[(S)-1-(2-pyridyl)ethyl]amino]thiazolo[4,5-d]pyrimidine-7-carbonyl]azetidin-3-yl]-3-phenyl-urea] | 100 to 1000 | > 1000 | > 1000 | < 100
Cc1nc2nc(N[C@@H](C)c3cccnc3)nc(C(=O)N3CC(NC(=O)c4ccoc4)C3)c2s1 [Example 80, N-[1-[2-Methyl-5-[[(S)-1-(3-pyridyl)ethyl]amino]thiazolo[4,5-d]pyrimidine-7-carbonyl]azetidin-3-yl]furan-3-carboxamide] | 100 to 1000 | > 1000 | > 1000 | < 100
Cc1cc(C)cc(C(=O)NC2CN(C(=O)c3nc(N[C@@H](C)c4cccnc4)nc4nc(C)sc34)C2)c1 [Example 83, 3,5-Dimethyl-N-[1-[2-methyl-5-[[(S)-1-(3-pyridyl)ethyl]amino]thiazolo[4,5-d]pyrimidine-7-carbonyl]azetidin-3-yl]benzamide] | < 100 | > 1000 | > 1000 | < 100

The remaining lines, values ahead:

IC50 (Adenosine A2B Receptor) [nM] | IC50 (A3R) [nM] | IC50 (A1R) [nM] | IC50 (Adenosine A2A Receptor) [nM] | Structure (SMILES)
< 100 | 100 to 1000 | > 1000 | < 100 | Cc1nc2nc(N[C@@H](C)c3cccnc3)nc(C(=O)N3CC(NC(=O)NC4CCCC4)C3)c2s1 [Example 79, 1-Cyclopentyl-3-[1-[2-methyl-5-[[(S)-1-(3-pyridyl)ethyl]amino]thiazolo[4,5-d]pyrimidine-7-carbonyl]azetidin-3-yl]urea]
< 100 | 100 to 1000 | > 1000 | < 100 | Cc1nc2nc(N[C@@H](C)c3cccnc3)nc(C(=O)N3CC(NC(=O)C4CCCCC4)C3)c2s1 [Example 81, N-[1-[2-Methyl-5-[[(S)-1-(3-pyridyl)ethyl]amino]thiazolo[4,5-d]pyrimidine-7-carbonyl]azetidin-3-yl]cyclohexanecarboxamide]
100 to 1000 | > 1000 | > 1000 | < 100 | Cc1nc2nc(N[C@@H](C)c3cccnc3)nc(C(=O)N3CC(NC(=O)C4CCOCC4)C3)c2s1 [Example 82, N-[1-[2-Methyl-5-[[(S)-1-(3-pyridyl)ethyl]amino]thiazolo[4,5-d]pyrimidine-7-carbonyl]azetidin-3-yl]tetrahydropyran-4-carboxamide]

— patent publication US20200079793A1, “COMPOUNDS AND METHODS FOR MODULATING ADENOSINE A2B RECEPTOR AND ADENOSINE A2A RECEPTOR” (CORVUS PHARMACEUTICALS, INC., priority 2018, published 2020)
